In the NIST ThermoML archive (doi:10.1021/je800242n):
Several values for one entry are separate records, joined by “and”; a condition that tells them apart may be missing. Identical values can stand only once. Numbers after ± are expanded uncertainties.

Details: Crystal

Compound: [F][Zn][F] [zinc fluoride]
- vapor or sublimation pressure (846 K): 1.2e-05 ± 2.7e-06 kPa
- vapor or sublimation pressure (852 K): 1.2e-05 ± 1.2e-06 kPa
- vapor or sublimation pressure (853 K): 1.23e-05 ± 1.3e-06 kPa
- vapor or sublimation pressure (854 K): 1.78e-05 ± 1.8e-06 kPa
- vapor or sublimation pressure (859 K): 1.23e-05 ± 2.7e-06 kPa
- vapor or sublimation pressure (865 K): 2.4e-05 ± 4.7e-06 kPa
- vapor or sublimation pressure (867 K): 1.82e-05 ± 3.6e-06 kPa and 2.4e-05 ± 3.9e-06 kPa
- vapor or sublimation pressure (871 K): 2.45e-05 ± 4.7e-06 kPa
- vapor or sublimation pressure (875 K): 2.45e-05 ± 5.9e-06 kPa
- vapor or sublimation pressure (876 K): 3.55e-05 ± 7.8e-06 kPa and 4.79e-05 ± 8.1e-06 kPa
- vapor or sublimation pressure (880 K): 3.63e-05 ± 9.2e-06 kPa and 3.55e-05 ± 9.2e-06 kPa
- vapor or sublimation pressure (883 K): 4.57e-05 ± 5.8e-06 kPa and 3.63e-05 ± 4.9e-06 kPa
- vapor or sublimation pressure (885 K): 4.57e-05 ± 9.9e-06 kPa
- vapor or sublimation pressure (886 K): 3.63e-05 ± 9.2e-06 kPa
- vapor or sublimation pressure (887 K): 4.57e-05 ± 9e-06 kPa and 6.03e-05 ± 1e-05 kPa and 4.9e-05 ± 9.2e-06 kPa
- vapor or sublimation pressure (888 K): 4.57e-05 ± 7.9e-06 kPa
- vapor or sublimation pressure (889 K): 7.24e-05 ± 1e-05 kPa
- vapor or sublimation pressure (891 K): 6.03e-05 ± 1.4e-05 kPa
- vapor or sublimation pressure (893 K): 6.17e-05 ± 1.1e-05 kPa
- vapor or sublimation pressure (895 K): 6.76e-05 ± 7e-06 kPa and 4.9e-05 ± 5.4e-06 kPa
- vapor or sublimation pressure (896 K): 6.76e-05 ± 1.1e-05 kPa and 6.17e-05 ± 1.1e-05 kPa
- vapor or sublimation pressure (898 K): 6.76e-05 ± 1.4e-05 kPa and 8.32e-05 ± 1.5e-05 kPa and 7.41e-05 ± 1.4e-05 kPa
- vapor or sublimation pressure (900 K): 6.76e-05 ± 7.3e-06 kPa
- vapor or sublimation pressure (902 K): 8.51e-05 ± 1.4e-05 kPa and 8.32e-05 ± 1.3e-05 kPa
- vapor or sublimation pressure (903 K): 9.12e-05 ± 1.5e-05 kPa and 0.000107 ± 1.6e-05 kPa
- vapor or sublimation pressure (904 K): 7.41e-05 ± 1.4e-05 kPa
- vapor or sublimation pressure (905 K): 7.41e-05 ± 2.2e-05 kPa
- vapor or sublimation pressure (906 K): 9.12e-05 ± 1.9e-05 kPa and 0.000107 ± 2.1e-05 kPa
- vapor or sublimation pressure (909 K): 0.000102 ± 3.4e-05 kPa and 9.77e-05 ± 3.4e-05 kPa
- vapor or sublimation pressure (910 K): 0.00012 ± 3.3e-05 kPa
- vapor or sublimation pressure (911 K): 0.000115 ± 2.9e-05 kPa
- vapor or sublimation pressure (912 K): 9.77e-05 ± 2.3e-05 kPa
- vapor or sublimation pressure (913 K): 0.000138 ± 2.5e-05 kPa and 0.000123 ± 2.4e-05 kPa
- vapor or sublimation pressure (914 K): 0.000155 ± 2.7e-05 kPa and 0.00011 ± 2.5e-05 kPa
- vapor or sublimation pressure (916 K): 0.000158 ± 3.1e-05 kPa and 0.000166 ± 3.2e-05 kPa
- vapor or sublimation pressure (919 K): 0.000158 ± 2.5e-05 kPa and 0.000135 ± 2.4e-05 kPa
- vapor or sublimation pressure (920 K): 0.000166 ± 1.9e-05 kPa
- vapor or sublimation pressure (921 K): 0.000182 ± 3.4e-05 kPa
- vapor or sublimation pressure (922 K): 0.000135 ± 2e-05 kPa
- vapor or sublimation pressure (923 K): 0.000204 ± 2.6e-05 kPa and 0.000148 ± 2e-05 kPa
- vapor or sublimation pressure (924 K): 0.000204 ± 3.9e-05 kPa
- vapor or sublimation pressure (925 K): 0.000182 ± 3.9e-05 kPa
- vapor or sublimation pressure (926 K): 0.000229 ± 3.7e-05 kPa
- vapor or sublimation pressure (928 K): 0.000204 ± 2.1e-05 kPa and 0.000251 ± 2.5e-05 kPa
- vapor or sublimation pressure (930 K): 0.000251 ± 5.1e-05 kPa and 0.000195 ± 5e-05 kPa
- vapor or sublimation pressure (932 K): 0.000263 ± 4.1e-05 kPa
- vapor or sublimation pressure (933 K): 0.000195 ± 7e-05 kPa and 0.000275 ± 7.3e-05 kPa
- vapor or sublimation pressure (934 K): 0.000295 ± 5.1e-05 kPa and 0.000257 ± 4.8e-05 kPa and 0.000209 ± 4.5e-05 kPa
- vapor or sublimation pressure (937 K): 0.000316 ± 3.3e-05 kPa
- vapor or sublimation pressure (938 K): 0.000372 ± 5.1e-05 kPa
- vapor or sublimation pressure (939 K): 0.000316 ± 5.2e-05 kPa
- vapor or sublimation pressure (940 K): 0.000339 ± 5.3e-05 kPa
- vapor or sublimation pressure (941 K): 0.000372 ± 4.7e-05 kPa and 0.000282 ± 3.8e-05 kPa
- vapor or sublimation pressure (942 K): 0.000282 ± 5.4e-05 kPa and 0.000355 ± 5.7e-05 kPa
- vapor or sublimation pressure (943 K): 0.000282 ± 3.8e-05 kPa
- vapor or sublimation pressure (945 K): 0.000407 ± 6.9e-05 kPa
- vapor or sublimation pressure (946 K): 0.00038 ± 5.7e-05 kPa
- vapor or sublimation pressure (948 K): 0.000437 ± 0.00011 kPa
- vapor or sublimation pressure (950 K): 0.000479 ± 8.3e-05 kPa and 0.000513 ± 8.5e-05 kPa
- vapor or sublimation pressure (951 K): 0.000479 ± 7.2e-05 kPa and 0.000389 ± 6.6e-05 kPa
- vapor or sublimation pressure (952 K): 0.000363 ± 7.4e-05 kPa and 0.000501 ± 8.2e-05 kPa
- vapor or sublimation pressure (955 K): 0.000575 ± 9.3e-05 kPa
- vapor or sublimation pressure (956 K): 0.000513 ± 8.9e-05 kPa and 0.000417 ± 8.4e-05 kPa
- vapor or sublimation pressure (958 K): 0.000575 ± 8.4e-05 kPa
- vapor or sublimation pressure (959 K): 0.000589 ± 9.2e-05 kPa
- vapor or sublimation pressure (960 K): 0.000661 ± 6.6e-05 kPa
- vapor or sublimation pressure (961 K): 0.000661 ± 0.00013 kPa and 0.000525 ± 0.00012 kPa
- vapor or sublimation pressure (962 K): 0.000692 ± 0.00011 kPa
- vapor or sublimation pressure (963 K): 0.000525 ± 9e-05 kPa and 0.000692 ± 0.0001 kPa
- vapor or sublimation pressure (965 K): 0.000589 ± 0.0001 kPa
- vapor or sublimation pressure (966 K): 0.000794 ± 0.00012 kPa and 0.000692 ± 0.00012 kPa
- vapor or sublimation pressure (968 K): 0.000759 ± 0.00019 kPa
- vapor or sublimation pressure (969 K): 0.000851 ± 0.00012 kPa and 0.000912 ± 0.00012 kPa
- vapor or sublimation pressure (970 K): 0.000871 ± 0.00016 kPa and 0.000708 ± 0.00015 kPa
- vapor or sublimation pressure (972 K): 0.000912 ± 0.00013 kPa
- vapor or sublimation pressure (973 K): 0.000955 ± 0.00015 kPa
- vapor or sublimation pressure (974 K): 0.000741 ± 0.00014 kPa
- vapor or sublimation pressure (975 K): 0.000912 ± 0.00014 kPa and 0.000813 ± 0.00014 kPa
- vapor or sublimation pressure (976 K): 0.00107 ± 0.00015 kPa
- vapor or sublimation pressure (978 K): 0.00105 ± 0.00011 kPa and 0.00123 ± 0.00012 kPa
- vapor or sublimation pressure (979 K): 0.00115 ± 0.00017 kPa and 0.000933 ± 0.00015 kPa
- vapor or sublimation pressure (980 K): 0.00115 ± 0.00023 kPa
- vapor or sublimation pressure (982 K): 0.0012 ± 0.00018 kPa
- vapor or sublimation pressure (983 K): 0.000977 ± 0.0002 kPa and 0.00132 ± 0.00022 kPa
- vapor or sublimation pressure (984 K): 0.00105 ± 0.00017 kPa
- vapor or sublimation pressure (986 K): 0.00145 ± 0.00021 kPa and 0.00126 ± 0.0002 kPa
- vapor or sublimation pressure (988 K): 0.00148 ± 0.0002 kPa and 0.00158 ± 0.00021 kPa
- vapor or sublimation pressure (989 K): 0.00148 ± 0.00033 kPa and 0.00138 ± 0.00032 kPa and 0.00126 ± 0.00032 kPa
- vapor or sublimation pressure (991 K): 0.00158 ± 0.00024 kPa
- vapor or sublimation pressure (993 K): 0.00132 ± 0.00019 kPa and 0.00135 ± 0.00019 kPa
- vapor or sublimation pressure (994 K): 0.00178 ± 0.00026 kPa
- vapor or sublimation pressure (996 K): 0.00191 ± 0.00028 kPa and 0.00195 ± 0.00028 kPa
- vapor or sublimation pressure (997 K): 0.00166 ± 0.00018 kPa
- vapor or sublimation pressure (998 K): 0.00182 ± 0.00026 kPa and 0.00214 ± 0.00028 kPa
- vapor or sublimation pressure (999 K): 0.00195 ± 0.0002 kPa and 0.00166 ± 0.00017 kPa
- vapor or sublimation pressure (1001 K): 0.00209 ± 0.0003 kPa
- vapor or sublimation pressure (1003 K): 0.00178 ± 0.00023 kPa
- vapor or sublimation pressure (1004 K): 0.00174 ± 0.0002 kPa and 0.00245 ± 0.00026 kPa
- vapor or sublimation pressure (1005 K): 0.00251 ± 0.00034 kPa
- vapor or sublimation pressure (1006 K): 0.00245 ± 0.00034 kPa
- vapor or sublimation pressure (1007 K): 0.00234 ± 0.00024 kPa
- vapor or sublimation pressure (1008 K): 0.00219 ± 0.0003 kPa
- vapor or sublimation pressure (1009 K): 0.00219 ± 0.00063 kPa and 0.00295 ± 0.00063 kPa
- vapor or sublimation pressure (1010 K): 0.00257 ± 0.00044 kPa
- vapor or sublimation pressure (1011 K): 0.00269 ± 0.00049 kPa
- vapor or sublimation pressure (1013 K): 0.00229 ± 0.00036 kPa and 0.00316 ± 0.00041 kPa and 0.00234 ± 0.00037 kPa
- vapor or sublimation pressure (1016 K): 0.00347 ± 0.00047 kPa
- vapor or sublimation pressure (1017 K): 0.00324 ± 0.00057 kPa and 0.00295 ± 0.00055 kPa
- vapor or sublimation pressure (1019 K): 0.00295 ± 0.00059 kPa
- vapor or sublimation pressure (1020 K): 0.00295 ± 0.00059 kPa
- vapor or sublimation pressure (1021 K): 0.00347 ± 0.00041 kPa and 0.00339 ± 0.00041 kPa
- vapor or sublimation pressure (1022 K): 0.00398 ± 0.00052 kPa and 0.00302 ± 0.00045 kPa
- vapor or sublimation pressure (1023 K): 0.00309 ± 0.00048 kPa
- vapor or sublimation pressure (1027 K): 0.00407 ± 0.00042 kPa and 0.0038 ± 0.00039 kPa
- vapor or sublimation pressure (1031 K): 0.00447 ± 0.0008 kPa and 0.00457 ± 0.00081 kPa and 0.00537 ± 0.00089 kPa
- vapor or sublimation pressure (1035 K): 0.00427 ± 0.00091 kPa
- vapor or sublimation pressure (1036 K): 0.00525 ± 0.0007 kPa
- vapor or sublimation pressure (1037 K): 0.0049 ± 0.0008 kPa
- vapor or sublimation pressure (1039 K): 0.00562 ± 0.00083 kPa
- vapor or sublimation pressure (1040 K): 0.00692 ± 0.0011 kPa
- vapor or sublimation pressure (1041 K): 0.00562 ± 0.00083 kPa
- vapor or sublimation pressure (1046 K): 0.00676 ± 0.0011 kPa and 0.00575 ± 0.00058 kPa
- vapor or sublimation pressure (1047 K): 0.00631 ± 0.00078 kPa
